The record followed here is patent US9249128B2 (priority 2010, dated 2016).

One test deals with T1, FAAH (Mus musculus, UniProt O08914).
T1 construct: from tissue; host or cells: mouse brain
T1 sequence (O08914 1-579): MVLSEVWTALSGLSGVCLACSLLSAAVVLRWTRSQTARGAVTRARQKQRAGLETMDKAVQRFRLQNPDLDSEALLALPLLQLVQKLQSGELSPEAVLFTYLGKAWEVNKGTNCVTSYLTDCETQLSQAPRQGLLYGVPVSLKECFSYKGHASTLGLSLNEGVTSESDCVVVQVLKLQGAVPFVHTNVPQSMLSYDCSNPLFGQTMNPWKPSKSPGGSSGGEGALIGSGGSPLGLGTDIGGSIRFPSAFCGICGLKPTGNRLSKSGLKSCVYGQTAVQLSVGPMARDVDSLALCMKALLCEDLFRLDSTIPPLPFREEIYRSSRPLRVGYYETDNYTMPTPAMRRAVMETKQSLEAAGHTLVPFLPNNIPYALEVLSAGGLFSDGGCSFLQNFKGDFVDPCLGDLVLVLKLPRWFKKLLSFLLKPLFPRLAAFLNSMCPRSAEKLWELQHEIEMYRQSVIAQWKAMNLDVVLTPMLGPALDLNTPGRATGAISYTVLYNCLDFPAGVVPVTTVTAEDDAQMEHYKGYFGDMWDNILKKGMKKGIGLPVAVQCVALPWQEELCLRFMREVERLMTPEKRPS
The experiment in a line: Competitive ABPP of FAAH in mouse brain proteome. It is filed as biochemical. The note with it: gel-based competitive ABPP, 10 μM inhibitor. How it is done: (§1) For ABPP experiments, cell lysate and tissue proteomes were treated with 1 μM FP-rhodamine for 30 min at room temperature (50 μL total reaction volume) as described previously (Nomura et al., 2010). Reactions were quenched with one volume of standard 4×SDS/PAGE loading buffer (reducing), separated by SDS/PAGE (10% acrylamide), and visualized in-gel with a Hitachi FMBio IIe flatbed fluorescence scanner (MiraiBio). Inhibitors were preincubated prior (30 min or 4 h at 37° C. in vitro or in situ, respectively) to the addition of FP-rhodamine.

For test [1], the system named is serine hydrolase activities detected in PC3 cells. Kind of test: Competitive ABPP-MudPIT of PC3 cells treated in situ. It is filed as cell-based, human. The note with it: 1 uM in situ treatment, 4 hr; >30 serine hydrolase activities detected in PC3 cells. How it is done: Inhibitors were dissolved in DMSO and diluted into media or buffer prior to cell or proteome treatment, respectively. For in vitro treatment, final DMSO concentration was 4%. For in situ treatments of cells for ABPP, lipid measurements, migration, cell-survival, and invasion assays, 2×10^6 cells were seeded in 6 cm dishes (˜100% confluency) 24 h prior to inhibitor pre-treatment (in DMSO at 0.1% final concentration) in serum-free media (3 mL) for the designated time before harvesting cells for ABPP or lipid measurements or before the initiation of migration, cell-survival, and invasion assays.
(§2) Competitive ABPP-MudPIT experiments were performed as previously described (Nomura et al., 2010). Briefly, 1 mg of proteome was labeled with 5 μM FP-biotin, followed by solubilization with 1% Triton X-100, denaturation by SDS and heating, avidin precipitation of labeled proteins, and on-bead tryptic digest. Tryptic peptides were then loaded on to a biphasic (strong cation exchange/reverse phase) capillary column and analyzed by two-dimensional liquid chromatography (2D-LC) separation in combination with tandem mass spectrometry using an Agilent 1100 LC system coupled with a ThermoFisher LTQ linear ion trap mass spectrometer. Spectral counts are reported as the average of three samples with the standard error of the mean (SEM).

The test system of test [2] is serine hydrolase activities detected in the brain proteome. Kind of test: Competitive ABPP-MudPIT of brain membrane proteomes from treated mice. Particulars: 20 mg/kg, oral gavage, 4 hr; off-target is carboxylesterase ES1. It is filed as in vivo, mouse. How it is done:
as §2
JW480 was administered by oral gavage (in PEG300, 4 μL/g mouse) or intraperitoneally (in 18:1:1 v/v/v solution of saline:ethanol:emulphor, 10 μL/g). After the indicated amount of time, mice were anesthetized with isoflurane and killed by decapitation. Tissues were removed and then flash frozen in liquid N2. Tissues were stored at −80° C. until use. Animal experiments were conducted in accordance with the guidelines of the institutional Animal Care and Use Committee of The Scripps Research Institute.

The target of test [3] is T2, KIAA1363 (Homo sapiens, UniProt Q6PIU2).
T2 sequence (Q6PIU2 1-408): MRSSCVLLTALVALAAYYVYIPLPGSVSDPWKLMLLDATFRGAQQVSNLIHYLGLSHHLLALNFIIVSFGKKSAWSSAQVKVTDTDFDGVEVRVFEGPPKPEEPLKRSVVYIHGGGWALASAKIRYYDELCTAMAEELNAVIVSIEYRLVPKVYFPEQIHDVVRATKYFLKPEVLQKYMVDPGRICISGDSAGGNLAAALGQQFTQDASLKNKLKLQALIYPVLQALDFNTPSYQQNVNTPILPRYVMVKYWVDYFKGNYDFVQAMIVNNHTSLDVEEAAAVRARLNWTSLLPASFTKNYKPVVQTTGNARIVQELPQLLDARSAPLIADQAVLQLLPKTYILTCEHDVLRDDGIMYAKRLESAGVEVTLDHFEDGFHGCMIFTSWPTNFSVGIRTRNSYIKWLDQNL
The experiment in a line: 2-acetyl MAGE hydrolytic activity assay in cancer cells treated in situ. It is filed as cell-based. Set-up: PC3 cancer cells, which have high endogenous KIAA1363 levels; endogenous in cells; host or cells: PC3 (2-acetyl MAGE assay also DU145 and SKOV3). The note with it: JW480 1 μM, 48 h; PC3 and DU145 cells.
Procedure: Cells were pretreated with KIAA1363 inhibitors in situ (for 4 hr in serum-free F-12K media before harvesting cells by scraping) or in vitro (for 30 min at 37° C. in PBS) before addition of 2-acetyl MAGE (100 μM) to cell lysates at room temperature for 30 min in a volume of 200 μL. Reactions were quenched with 600 μL 2:1 chloroform:methanol and 10 nmol of C12:0 MAGE internal standard was added. The organic layer was extracted and 30 μL injected into an Agilent 1100-MSD LC-MS. LC-MS settings were as previously described (Chiang et al., 2006). Product levels (C16:0 MAGE) were quantified in relation to the internal standard. Specific activity was determined during the linear phase of enzymatic reactions (i.e., less than 20% substrate utilized).
Cell lysates (20 μg) in Tris buffer were then incubated with lipid (100 mM, e.g., 2-acetyl MAGE for KIAA1363 activity) at room temperature for 30 min in a volume of 200 ml. Reactions were quenched with 600 ml 2:1 chloroform:methanol and 10 nmol of C12:0 MAGE internal standard was added. […] Product levels (C16:0 MAGE for KIAA1363 activity) were quantified in relation to internal standard levels and standard curves generated between varying lipid concentration versus constant internal standard levels. Specific activity was determined during the linear phase of enzymatic reactions (i.e., less than 20% substrate utilized)

Test [4] has as its target T2, KIAA1363. Kind of test: Competitive ABPP of tumors explanted from treated mice. It is filed as in vivo, mouse. Set-up: PC3 cancer cells, which have high endogenous KIAA1363 levels; endogenous in cells; host or cells: PC3 (2-acetyl MAGE assay also DU145 and SKOV3). The note with it: 80 mg/kg oral daily; tumors removed 4 hr after final dose (day 33). How it is done:
as §1
Human cancer xenografts were established by transplanting cancer cell lines ectopically into the flank of C.B17 SCID mice (Taconic Farms). Briefly, cells were washed two times with PBS, trypsinized, and harvested in serum-containing medium. Next, the harvested cells were washed two times with serum-free medium and resuspended at a concentration of 2.0×10^4 cells/μL and 100 μL was injected. Growth of the tumors was measured every 3 days with calipers. For chronic JW480 treatment studies, mice were treated with JW480 or vehicle once daily (at approximately the same time everyday) by oral gavage in PEG300 (4 μL/g mouse). The treatments were initiated immediately after ectopic injection of cancer cells.

As for `COc1ccc(CNC(=O)Oc2cccc3c2OC(C)(C)C3)cc1` [JW148, 2,2-dimethyl-2,3-dihydrobenzofuran-7-yl 4-methoxybenzylcarbamate], the “Inhibition of FAAH / selectivity versus FAAH” value on FAAH is given as “good selectivity”.

For `CC(C)c1ccccc1OC(=O)NCCc1ccc2ccccc2c1` [JW480, 2-isopropylphenyl (2-(naphthalen-2-yl)ethyl)carbamate], the “Off-target activity across serine hydrolases (ABPP-MudPIT)” value in test [1] is on record as “no off-target activity”. Moreover, in test [2], the “Off-targets among ~30 brain serine hydrolase activities (ABPP-MudPIT)” value is “only a single off-target was observed”. The “2-acetyl MAGE hydrolase activity” value on KIAA1363 [3] is recorded as “completely blocked”. Besides, on KIAA1363 [4], the “KIAA1363 activity in explanted tumors” value was “completely ablated”.
